Where two headings read alike, the source gives them in different places.
How the values were obtained:
[1] = test system: Wnt pathway (Sp5-Luc reporter, TCF/LEF binding sites) in SW480 colon carcinoma cells; test: Screening assay for Wnt activity: Sp5-Luc reporter gene assay; assay type: cell-based, human; settings: Homo sapiens; for EC50: Sp5-Luc reporter, SW480 cells, 36 to 48 hours; for inhibition at 10 µM: SW480, read-out: percent inhibition at 10 μM;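 on all read-outs here: firefly luciferase luminescence read in stably transduced SW480 cells carrying the Sp5 promoter reporter with eight TCF/LEF sites, compounds given in 0.1% DMSO final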
Description: The screening assay for Wnt activity is described as follows.
Following incubation, 15 μl of BriteLite Plus luminescence reagent (Perkin Elmer) was added to each well of the 384-well assay plates. The plates were placed on an orbital shaker for 2 min and then luminescence was quantified using the Envision (Perkin Elmer) plate reader.

[2] = target: recombinant DYRK1A kinase (Homo sapiens (Human), UniProt Q13627); test: DYRK1A kinase assay (Ser/Thr 18 peptide Z-lyte FRET); assay type: biochemical; settings: 30 μM ATP, 1 h room temperature;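 further: Read-out is the coumarin to fluorescein emission ratio, referenced to unphosphorylated (0%) and phosphorylated (100%) Ser/Thr 18 peptide controls, values from dose-response curves by non-linear regression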
recombinant GSK3β kinase = recombinant GSK3β kinase (Homo sapiens (Human), UniProt P49841); test: GSK3β kinase assay (Ser/Thr 09 peptide Z-lyte FRET); assay type: biochemical; settings: 46 μM ATP, 1 h room temperature;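 further: kinase activity read as coumarin to fluorescein emission ratio, 11-point threefold dilutions from 10 µM to 0.0003 µM in duplicate, unphosphorylated and phosphorylated peptide as 0% and 100% controls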
[3] = test system: Tau phosphorylation at Ser396 (pSer396); test: Tau phosphorylation assay (pSer396 ELISA / western blot) in SH-SY5Y cells; assay type: cell-based, human; settings: Homo sapiens, read-out: pSer396 Tau EC50;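 further: EC50 for reduction of Tau pSer396 in lysed cells, measured by colorimetric ELISA or chemiluminescent western blot, both using the same pSer396 antibody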
[4] = test system: SW480 colon carcinoma cells; test: Cell viability assay (CellTiter-Glo); assay type: cell-based, human; settings: Homo sapiens; for EC50: 96 h, SW480 cells, CellTiter-Glo, four days incubation; for inhibition at 10 µM: SW480, read-out: percent inhibition at 10 μM
[5] = test system: α-smooth muscle actin (αSMA) positive LL29 cells; test: Inhibition of fibrotic process: αSMA in TGF-β1 treated primary human fibroblasts from IPF patients; assay type: cell-based; settings: Homo sapiens, Fibroblast; for EC50: 96 h, Table 8, LL29 fibroblasts from IPF patients, TGF-β1 20 ng/mL, 4 days, dose-response 10 μM to 0.94 nM; for inhibition at 10 µM: read-out: percent value in parentheses beside EC50 >10 μM;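 on all read-outs here: controls were TGF-β1 stimulated wells with DMSO vehicle (positive) and cells given DMSO alone (negative), cultured in F12 medium with 1% fetal bovine serum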
IL-6 = IL-6 inhibition in LPS-stimulated human peripheral blood mononuclear cells (HTRF); assay type: cell-based; settings: Homo sapiens, PBMC; for EC50: Table 9, huPBMCs, LPS 50 ng/mL, 22 hours, dose-response starting from 10 μM; for inhibition at 10 µM: read-out: percent value in parentheses beside EC50 >10 μM;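 on all read-outs here: IL-6 detected by HTRF with an XL665- and Cryptate-labelled anti-IL-6 antibody pair, samples run in duplicate, EC50 obtained from a four-parameter Levenberg-Marquardt curve fit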
Description: After 22 hour incubation, a mixture of anti-IL6 XL665 and anti-IL-6 Cryptate diluted in reconstitution buffer (Catalog #62IL6PEC, Cisbio Inc., Bedford, Mass.) was added to each well. […] All samples were processed in duplicate. […] EC50 was determined using software generated by Dotmatics Limited (Windhill Bishops Stortford Herts, UK) using the Levenberg-Marquardt 4 parameter fitting procedure with finite different gradients.

[6] = SH-SY5Y cells, overnight (16-18 h) exposure

Sequence of recombinant GSK3β kinase (P49841 whole entry): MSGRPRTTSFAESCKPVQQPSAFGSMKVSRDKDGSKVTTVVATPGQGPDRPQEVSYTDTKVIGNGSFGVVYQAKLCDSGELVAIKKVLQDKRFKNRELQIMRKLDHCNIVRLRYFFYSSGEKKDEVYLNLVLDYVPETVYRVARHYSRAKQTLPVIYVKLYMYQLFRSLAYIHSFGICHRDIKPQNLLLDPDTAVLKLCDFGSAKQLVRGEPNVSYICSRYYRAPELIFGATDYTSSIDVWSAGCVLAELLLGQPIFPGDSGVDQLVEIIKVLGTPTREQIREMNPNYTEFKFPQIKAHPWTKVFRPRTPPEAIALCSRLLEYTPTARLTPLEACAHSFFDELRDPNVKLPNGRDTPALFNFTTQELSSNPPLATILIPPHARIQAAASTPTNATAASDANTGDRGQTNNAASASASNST

SMILES	EC50 [1] [nM]	EC50 [2] [nM]	EC50 (recombinant GSK3β kinase) [nM]	EC50 [3, 6] [nM]	EC50 [4] [nM]	inhibition at 10 µM [4] [%]	EC50 [5] [nM]	EC50 (IL-6) [nM]	inhibition at 10 µM (IL-6) [%]	inhibition at 10 µM [5] [%]	EC50 ([3]; SH-SY5Y) [nM]	inhibition at 10 µM [1] [%]
C[C@@H]1COCCN1CC(=O)Nc1cc2cc(-c3cnn(C)c3)ccc2cn1 [Compound 342, (R)—N-(6-(1-Methyl-1H-pyrazol-4-yl)isoquinolin-3-yl)-2-(3-methylmorpholino)acetamide]	7220	6.5	137	3600	> 10000	40	948	4170	–	–	–	–
C[C@H]1CN(CC(=O)Nc2cc3cc(-c4cnn(C)c4)ccc3cn2)CCO1 [Compound 343, (S)—N-(6-(1-Methyl-1H-pyrazol-4-yl)isoquinolin-3-yl)-2-(2-methylmorpholino)acetamide]	3590	9.9	71	2400	7890	–	446	> 10000	47.4	–	–	–
C[C@@H]1CN(CC(=O)Nc2cc3cc(-c4cnn(C)c4)ccc3cn2)C[C@H](C)O1 [Compound 344, 2-((2R,6S)-2,6-Dimethylmorpholino)-N-(6-(1-methyl-1H-pyrazol-4-yl)isoquinolin-3-yl)acetamide]	5470	10.5	175	3500	7680	–	> 10000	9130	–	24.3	–	–
Cn1cc(-c2ccc3cnc(NC(=O)CN4C[C@@H]5C[C@H]4CO5)cc3c2)cn1 [Compound 345, 2-((1S,4S)-2-Oxa-5-azabicyclo[2.2.1]heptan-5-yl)-N-(6-(1-methyl-1H-pyrazol-4-yl)isoquinolin-3-yl)acetamide]	2120	4	26	774	3080	–	> 10000	4170	–	38	–	–
Cn1cc(-c2ccc3cnc(NC(=O)CN4C[C@H]5C[C@@H]4CO5)cc3c2)cn1 [Compound 346, 2-((1R,4R)-2-Oxa-5-azabicyclo[2.2.1]heptan-5-yl)-N-(6-(1-methyl-1H-pyrazol-4-yl)isoquinolin-3-yl)acetamide]	4360	9.9	84	1800	9660	–	965	9440	–	–	–	–
Cn1cc(-c2ccc3cnc(NC(=O)CN4C5CCC4COC5)cc3c2)cn1 [Compound 347, 2-(3-Oxa-8-azabicyclo[3.2.1]octan-8-yl)-N-(6-(1-methyl-1H-pyrazol-4-yl)isoquinolin-3-yl)acetamide]	9440	10.4	165	–	> 10000	48.5	5220	> 10000	4.5	–	4400	–
C[C@@H](C(=O)Nc1cc2cc(-c3cnn(C)c3)ccc2cn1)N1CCOCC1 [Compound 348, (S)—N-(6-(1-Methyl-1H-pyrazol-4-yl)isoquinolin-3-yl)-2-morpholinopropanamide]	> 10000	77.5	221	2000	> 10000	22.4	1460	> 10000	19	–	–	36.9
Cn1cc(-c2ccc3cnc(NC(=O)CC4CNCCO4)cc3c2)cn1 (stereo not drawn) [Compound 349, N-(6-(1-Methyl-1H-pyrazol-4-yl)isoquinolin-3-yl)-2-(morpholin-2-yl) acetamide]	712	6.5	66	351	704	–	145	307	–	–	–	–
CN1CCOC(CC(=O)Nc2cc3cc(-c4cnn(C)c4)ccc3cn2)C1 (stereo not drawn) [Compound 350, N-(6-(1-Methyl-1H-pyrazol-4-yl)isoquinolin-3-yl)-2-(4-methylmorpholin-2-yl)acetamide]	1000	6.2	33	417	1080	–	100	578	–	–	–	–
CCN1CCN(CC(=O)Nc2cc3cc(-c4cnn(C)c4)ccc3cn2)CC1 [Compound 351, 2-(4-Ethylpiperazin-1-yl)-N-(6-(1-methyl-1H-pyrazol-4-yl)isoquinolin-3-yl) acetamide]	2520	13.6	130	846	6880	–	> 10000	3010	–	38.8	–	–
CC(C)N1CCN(CC(=O)Nc2cc3cc(-c4cnn(C)c4)ccc3cn2)CC1 [Compound 352, 2-(4-Isopropylpiperazin-1-yl)-N-(6-(1-methyl-1H-pyrazol-4-yl)isoquinolin-3-yl)acetamide]	2960	21.5	110	1300	8600	–	1320	5030	–	–	–	–
Cn1cc(-c2ccc3cnc(NC(=O)CN4CCN(C5CC5)CC4)cc3c2)cn1 [Compound 353, 2-(4-Cyclopropylpiperazin-1-yl)-N-(6-(1-methyl-1H-pyrazol-4-yl)isoquinolin-3-yl)acetamide]	5710	8.6	29	724	8220	–	> 10000	> 10000	39.9	31.7	–	–
Cn1cc(-c2ccc3cnc(NC(=O)CN4CCN(CCF)CC4)cc3c2)cn1 [Compound 354, 2-(4-(2-Fluoroethyl)piperazin-1-yl)-N-(6-(1-methyl-1H-pyrazol-4-yl)isoquinolin-3-yl)acetamide]	2320	4.4	37	1200	4990	–	346	7000	–	–	–	–
C[C@H]1CN(C)CCN1CC(=O)Nc1cc2cc(-c3cnn(C)c3)ccc2cn1 [Compound 355, (S)-2-(2,4-Dimethylpiperazin-1-yl)-N-(6-(1-methyl-1H-pyrazol-4-yl)isoquinolin-3-yl)acetamide]	3510	6.4	228	1700	8630	–	6190	9130	–	–	–	–
Cn1cc(-c2ccc3cnc(NC(=O)C4CCN(CCO)CC4)cc3c2)cn1 [Compound 358, 1-(2-Hydroxyethyl)-N-(6-(1-methyl-1H-pyrazol-4-yl)isoquinolin-3-yl) piperidine-4-carboxamide]	413	0.6	80	353	2370	–	145	613	–	–	–	–
Cn1cc(-c2ccc3cnc(NC(=O)C4CCN(Cc5ccccn5)CC4)cc3c2)cn1 [Compound 359, N-(6-(1-Methyl-1H-pyrazol-4-yl)isoquinolin-3-yl)-1-(pyridin-2-ylmethyl) piperidine-4-carboxamide]	669	3	82	521	261	–	127	1030	–	–	–	–
Cn1cc(-c2ccc3cnc(NC(=O)C4CCN(Cc5ncco5)CC4)cc3c2)cn1 [Compound 360, N-(6-(1-Methyl-1H-pyrazol-4-yl)isoquinolin-3-yl)-1-(oxazol-2-ylmethyl) piperidine-4-carboxamide]	690	1.9	47	659	570	–	94	1170	–	–	–	–
CN1CCC[C@@H]1C(=O)Nc1cc2cc(-c3cnn(C)c3)ccc2cn1 [Compound 363, (R)-1-Methyl-N-(6-(1-methyl-1H-pyrazol-4-yl)isoquinolin-3-yl)pyrrolidine-2-carboxamide]	2360	50.3	35	406	3060	–	387	1220	–	–	–	–
Cn1cc(-c2ccc3cnc(NC(=O)C4CC4)c(Cl)c3c2)cn1 [Compound 364, N-(4-Chloro-6-(1-methyl-1H-pyrazol-4-yl)isoquinolin-3-yl) cyclopropanecarboxamide]	> 10000	840	3120	> 10000	5600	–	> 10000	> 10000	5.8	15	–	24.1
Cn1cc(-c2ccc3cnc(NC(=O)[C@H]4CC[C@H](N)CC4)cc3c2)cn1 [Compound 365, trans-4-Amino-N-(6-(1-methyl-1H-pyrazol-4-yl)isoquinolin-3-yl) cyclohexane-1-carboxamide]	381	2.7	52	1200	522	–	4800	526	–	–	–	–
Cn1cc(-c2cc(F)c3cnc(NC(=O)C4CCNCC4)cc3c2)cn1 [Compound 366, N-(8-Fluoro-6-(1-methyl-1H-pyrazol-4-yl)isoquinolin-3-yl)piperidine-4-carboxamide]	334	10.6	116	1100	910	–	173	1120	–	–	–	–
